Data: patent US20050282830A1, “Use of dipyridamole or mopidamole for treatment and prevention of MMP-9-dependent disorders” (Boehringer Ingelheim International GmbH, priority 2003, published 2005)

Key:
[1] = tested on: matrix metalloproteinase-9 (MMP-9); test: Inhibition of MMP-9 gene expression/synthesis in platelet-monocyte aggregates adherent to collagen type I; format: cell-based, Human; settings: adhered to collagen type I for 18 hours, 9 independent experiments
Description: Inhibition of MMP-9 Gene Expression in Platelet-Monocyte Aggregates by the Dipyridamole Component of Aggrenox® (AGG)
Aggrenox® (AGG) is a fixed dosed combination of extended-release dipyridamole (DIP) and aspirin (ASA). AGG is recommended in the protection of secondary stroke and transient ischemic attacks. It also increases tissue perfusion in patients with stable angina or Raynaud's disease. It was determined if AGG blocked the synthesis of inflammatory genes produced by platelet-monocyte aggregates.
Human platelets and monocytes were pretreated with Dipyridamole (DIP) (5 μg/ml), ASA (625 ng/ml), or a DIP/ASA mixture (AGG); 5 μg/ml: 625 ng/ml, an 8:1 ratio of DIP/ASA). The cells were adhered to collagen type I. Synthesis of matrix metalloproteinase-9 (MMP-9) was determined. […] AGG and DIP reduced MMP-9 expression (53%, 61%, and a 17% reduction in MMP-9 synthesis compared to untreated cells for AGG, DIP, and ASA, respectively; results shown in FIG. 1). The inhibitory actions of AGG on gene expression are due to the DIP component of this |drug|.
FIG. 1: The Dipyridamole component of Aggrenox attenuates MMP-9 synthesis by monocytes (monos) adherent to platelets (pits) and collagen. […] The cells were subsequently adhered to Collagen Type 1 for 18 hours and MMP-9 expression was measured. […]

[2] = ESPS-2; compared with aspirin; cited from earlier work

| Structure (SMILES) | reduction in MMP-9 synthesis compared to untreated cells ([1]; human platelets and monocytes pretreated 15 minutes with 625 ng/ml) | reduction in MMP-9 synthesis compared to untreated cells ([1]; human platelets and monocytes pretreated 15 minutes with 5 μg/ml) | reduction of stroke risk [2] |
| --- | --- | --- | --- |
| CC(=O)Oc1ccccc1C(=O)O [ASA, acetylsalicalic acid] | 17% | – | – |
| OCCN(CCO)c1nc(N2CCCCC2)c2nc(N(CCO)CCO)nc(N3CCCCC3)c2n1 [DIP, 2,6-bis(diethanolamino)-4,8-dipiperidino-pyrimido[5,4-d]pyrimidine] | – | 61% | as effective as low-dose aspirin |
